Legend:
[1] = tested on: effect of estradiol on the prostate (FRA2 or PR expression); assay: Estrogen antagonist effect in the prostate of castrated Noble rats, with and without estradiol, measured by FRA2 or PR expression; type: in vivo; details: three weeks, 3, 10 and 30 mg/kg, with and without estradiol 70 ug/day
[2] = Estrogen antagonist treatment of prostatitis in rats treated with T and E2; type: in vivo; details: 3 weeks T 240 ug/day and E2 70 ug/day, 2 doses of 5 mg/kg on the third week
Excerpt: As prostatitis can be reversed by administering an antiestrogen, the condition is seen to be estrogen dependent.

Row | Structure (SMILES) | effect of estradiol on the prostate, measured by FRA2 or PR expression [1] | effect on prostatitis compared to the control group treated with T and E2 only [2]
1 | OCCOCCOc1ccc(/C(=C(/CCCl)c2ccccc2)c2ccccc2)cc1 [fispemifene] | dose dependently inhibited the effect of estradiol on the prostate | 
2 | C[C@]12CC[C@@H]3c4ccc(O)cc4C[C@@H](CCCCCCCCC[S+]([O-])CCCC(F)(F)C(F)(F)F)[C@H]3[C@@H]1CC[C@@H]2O (some centres unmarked) [fulvestrant] |  | significantly reduced the prostatitis

From patent US7825107B2, “Method of treating men suffering from chronic nonbacterial prostatitis with SERM compounds or aromatase inhibitors” (Hormos Medical Ltd., priority 2006, dated 2010)
